According to patent publication US4435410A, “3-[2-(3-Alkyl and alkenyl-4-piperidyl)-ethyl]-indoles for inhibiting serotonin uptake and for releasing serotonin” (Pharmindustrie, priority 1981, dated 1984):

Key:
[1] = Acute toxicity in male mice by oral administration; details: mouse, in vivo; male mice CD1, oral, after 3 days' observation, cumulative method
Method: The acute toxicity of the products was determined in male mice CD1 (Charles RIVER) by oral administrations. The LD50 which was calculated after 3 days' observation, by the cumulative method of J. J. Reed and Coll. (Am. J. Hyg. 27, 493-1938) is 225 mg/kg for the compound of Example 1, and about 200 mg/kg for the compound of Example 4.

[2] = system: human blood platelets (release of serotonin); test: Release of serotonin from human blood platelets; format: cell-based; details: Platelet, product concentration 5 × 10^-5 moles per liter, compared with controls, read-out: Percent of increased serotonin release
Method: The ability of products to inhibit the uptake of serotonin or to cause its release has been shown on human blood platelets according to J. L. David and Coll. "Platelets Function and Thrombosis, a Review of Methods", p.
The action of the products on the release of serotonin is tested at a concentration of 5×10^-5 moles per liter.

[3] = system: human blood platelets (uptake of serotonin); test: Inhibition of the uptake of serotonin by human blood platelets; format: cell-based; details: Platelet, read-out: Inhibition of serotonin uptake I50
Description: It is known that the uptake of serotonin by the blood platelets constitutes a good model for the uptake of this amine by the neurons (cf. J. Tuomisto, J. Pharm. Pharmac., 26. 92 (1974). When it is applied to the study of medicaments, a method which makes use of the blood platelets is very attractive from the point of view of allowing human cells to be used, thereby giving it good prospects.
The ability of products to inhibit the uptake of serotonin or to cause its release has been shown on human blood platelets according to J. L. David and Coll. "Platelets Function and Thrombosis, a Review of Methods", p. 335 (Plenum Press, London, 1972).
(1) Inhibition of the uptake of serotonin
The results are expressed by a 50% inhibiting dose or I50 which represents the dose of the product in micromoles per liter, reducing the uptake of serotonin by 50%.

Row | SMILES | LD50 at 72 h [1] [mg/kg] | activation at 50 µM [2] [%] | IC50 [3] [nM]
1 | C=C[C@H]1CNCC[C@H]1CCc1c[nH]c2ccccc12 [Example 1, 3-[2-(3(R)VINYL-4(R)PIPERIDYL)-ETHYL]-INDOLE] | 225 | 84 | 8
2 | C=C[C@@H]1CNCC[C@H]1CCc1c[nH]c2ccccc12 [Example 4, 3-{2-[3(S)VINYL-4(R)PIPERIDYL]-ETHYL}-INDOLE] | ~200 | 91 | 35
3 | CC[C@H]1CNCC[C@H]1CCc1c[nH]c2ccccc12 [Example 2, 3-{2-[3(R)ETHYL-4(R)PIPERIDYL]-ETHYL}-INDOLE] |  | 75 | 60
